{"source": "PubChem BioAssay AID493137", "about": "(Sanford-Burnham Center for Chemical Genomics, 2011)", "note": "Where “and” joins values, the source holds several entries; their conditions need not be identical. Identical values can stand only once. Calls of active or inactive are those of the source.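 How the source made its calls: active means compounds whose mean IC50 is under 100 micromolar in the phosphatase inhibition dose series; inactive means the rest.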", "data": [{"molecular_target": "Intestinal-type alkaline phosphatase (Homo sapiens) (UniProt P09923)", "sequence (P09923 whole entry, looked up)": "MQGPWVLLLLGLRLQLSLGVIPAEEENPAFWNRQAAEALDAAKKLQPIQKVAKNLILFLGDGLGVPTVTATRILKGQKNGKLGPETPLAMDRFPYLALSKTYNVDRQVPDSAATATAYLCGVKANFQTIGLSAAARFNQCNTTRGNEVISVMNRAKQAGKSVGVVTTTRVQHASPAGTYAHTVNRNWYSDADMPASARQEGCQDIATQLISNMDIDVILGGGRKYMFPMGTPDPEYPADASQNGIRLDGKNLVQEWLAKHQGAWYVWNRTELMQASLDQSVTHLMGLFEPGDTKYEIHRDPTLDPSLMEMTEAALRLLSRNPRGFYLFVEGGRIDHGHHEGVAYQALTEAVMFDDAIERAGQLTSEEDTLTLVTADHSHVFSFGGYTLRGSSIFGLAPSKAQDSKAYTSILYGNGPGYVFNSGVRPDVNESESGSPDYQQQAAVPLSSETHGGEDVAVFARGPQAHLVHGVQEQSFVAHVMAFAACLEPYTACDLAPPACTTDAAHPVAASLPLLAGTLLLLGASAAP", "experiment": "potency of intestinal alkaline phosphatase inhibition – biochemical, luminescence, SAR follow-up (AID 493137)", "conditions": "purified human IAP, CDP-Star luminescence, 30 min", "values": [{"compound": "COc1cc(C=NNC(=S)Nc2cccc(S(=O)(=O)N(C)C)c2)cc(OC)c1O", "IC50": "> 100 µM (inactive)"}, {"compound": "Cc1ccc(Nc2nc(-c3ccc(O)cc3O)cs2)cc1", "IC50": "> 100 µM (inactive)"}, {"compound": "O=[N+]([O-])c1ccccc1NC(=S)NN=Cc1ccc(O)c(O)c1", "IC50": "76 µM"}, {"compound": "COC(=O)/C=C1\\SC(N=Nc2c(O)[nH]c3ccccc23)=NC1=O", "IC50": "> 100 µM (inactive)"}, {"compound": "COc1cccc(Nc2nc(-c3ccc(O)cc3)cs2)c1", "IC50": "> 100 µM (inactive)"}, {"compound": "COc1ccc(/C=N/N=C2/NC(=O)C(CC(=O)O)S2)cc1OC", "note": "(stereo unspecified)", "IC50": "> 100 µM (inactive)"}, {"compound": "N#CCCn1cc(/C=N/N=C2/NC(=O)C(CC(=O)O)S2)c(-c2ccc(F)cc2)n1", "note": "(stereo unspecified)", "IC50": "> 100 µM (inactive)"}, {"compound": "COc1ccc(C=NN=C2SC(CC(=O)O)C(=O)N2c2ccc(O)cc2)cc1", "note": "(stereo unspecified)", "IC50": "> 100 µM (inactive)"}, {"compound": "NS(=O)(=O)c1ccc(Nc2nc(-c3ccc(O)c(O)c3)cs2)cc1", "IC50": "45.1 µM"}, {"compound": "COc1cc(/C=N/N=C2/SCC(=O)N2c2ccc(O)cc2)ccc1O", "IC50": "> 100 µM (inactive)"}, {"compound": "CCOc1cc(C=N/N=C2/NC(=O)C(CC(=O)O)S2)ccc1OCc1ccccc1Cl", "note": "(stereo unspecified)", "IC50": "> 100 µM (inactive)"}, {"compound": "COc1cc(C=NNC(=S)Nc2cccc(S(=O)(=O)N(C)C)c2)ccc1O", "IC50": "> 100 µM (inactive)"}, {"compound": "CC(C)(C)c1ccc(/C=N/N=C2\\NC(=O)C(CC(=O)O)S2)cc1", "note": "(stereo unspecified)", "IC50": "> 100 µM (inactive)"}, {"compound": "CCc1ccccc1Nc1nc(-c2ccc(O)c(O)c2)cs1", "IC50": "17.8 µM and 14.5 µM"}, {"compound": "COc1ccc(-c2csc(Nc3cccc4ccccc34)n2)cc1F", "IC50": "> 100 µM (inactive)"}, {"compound": "O=[N+]([O-])c1ccccc1NC(=S)N/N=C/c1ccc(O)c(O)c1O", "IC50": "> 100 µM (inactive)"}, {"compound": "Cc1ccc(Nc2nc(-c3ccc(O)c(O)c3)cs2)cc1", "IC50": "> 100 µM (inactive)"}, {"compound": "Oc1ccc(-c2csc(Nc3ccc(F)cc3)n2)cc1O", "IC50": "> 100 µM (inactive)"}, {"compound": "COC(=O)/C=C1/S/C(=N/NC(=O)c2ccc(OC)cc2)NC1=O", "IC50": "> 100 µM (inactive)"}, {"compound": "Cc1cccc(NC(=S)NNC(=O)c2ccc3c(c2)OCO3)c1", "IC50": "> 100 µM (inactive)"}, {"compound": "COC(=O)/C=C1/S/C(=N/NC(=O)c2ccccc2C)NC1=O", "IC50": "> 100 µM (inactive)"}, {"compound": "Cc1cc(=O)oc2cc(NC(=S)NCCC(c3ccccc3)c3ccccc3)ccc12", "IC50": "> 100 µM (inactive)"}, {"compound": "Cc1ccc2nc(NNC(=O)c3ccc4c(c3)OCCO4)sc2c1", "IC50": "> 100 µM (inactive)"}, {"compound": "COc1ccc(-c2csc(Nc3cccc4ccccc34)n2)cc1", "IC50": "> 100 µM (inactive)"}, {"compound": "Cc1ccc(Cl)cc1Nc1nc(-c2ccc(O)c(O)c2)cs1", "IC50": "24.4 µM"}, {"compound": "COC(=O)/C=C1/S/C(=N/N=Cc2ccc(N(C)C)cc2)NC1=O", "IC50": "> 100 µM (inactive)"}, {"compound": "Oc1ccc(-c2csc(Nc3cccc4ccccc34)n2)cc1O", "IC50": "33 µM and 46.8 µM"}, {"compound": "COC(=O)/C=C1/S/C(=N/NC(=O)c2ccccc2OC)NC1=O", "IC50": "> 100 µM (inactive)"}, {"compound": "Cn1c(=S)n(N=Cc2ccc3c(c2)OCO3)c2ccccc21", "IC50": "> 100 µM (inactive)"}, {"compound": "COc1cc(C=NNC(=S)Nc2cccc(C(=O)O)c2)ccc1O", "IC50": "> 100 µM (inactive)"}, {"compound": "Cc1cc(C)cc(Nc2nc(-c3ccc(O)cc3O)cs2)c1", "IC50": "> 100 µM (inactive)"}, {"compound": "COc1cc([N+](=O)[O-])ccc1NC(=S)NCCC(c1ccccc1)c1ccccc1", "IC50": "> 100 µM (inactive)"}, {"compound": "Cc1cccc(NC(=S)NN=Cc2ccc3c(c2)OCO3)c1", "IC50": "> 100 µM (inactive)"}, {"compound": "COc1ccc(C=NNC(=S)Nc2ccccc2[N+](=O)[O-])cc1O", "IC50": "> 100 µM (inactive)"}, {"compound": "COc1ccc(C=Nn2c(=S)n(C)c3ccccc32)cc1OC", "IC50": "> 100 µM (inactive)"}, {"compound": "COc1ccc(C(=O)NNC(=S)NC2CCCCC2)cc1OC", "IC50": "> 100 µM (inactive)"}, {"compound": "COC(=O)/C=C1\\S/C(=N/N=C/CC(=O)OC)NC1=O", "IC50": "> 100 µM (inactive)"}, {"compound": "FC(F)(F)c1cccc(NC(=S)NCCC(c2ccccc2)c2ccccc2)c1", "IC50": "> 100 µM (inactive)"}, {"compound": "CCN(CC)S(=O)(=O)c1ccc(-c2csc(=Nc3cccc4ccccc34)n2C)cc1", "IC50": "> 100 µM (inactive)"}, {"compound": "Cc1ccc(-c2ccc(/C=N/N=C3\\NC(=O)C(CC(=O)O)S3)o2)c([N+](=O)[O-])c1", "note": "(stereo unspecified)", "IC50": "> 100 µM (inactive)"}, {"compound": "COc1ccc(/C=N/N=C2\\NC(=O)C(CC(=O)O)S2)c(OC)c1", "note": "(stereo unspecified)", "IC50": "> 100 µM (inactive)"}, {"compound": "Cc1ccc(Nc2nc(-c3ccc(O)c(O)c3)cs2)cc1F", "IC50": "> 100 µM (inactive)"}, {"compound": "CCOc1cc(/C=N/N=C2\\NC(=O)C(CC(=O)O)S2)ccc1O", "note": "(stereo unspecified)", "IC50": "> 100 µM (inactive)"}, {"compound": "CCOc1ccc(Nc2nc(-c3ccc(O)c(O)c3)cs2)cc1", "IC50": "> 100 µM (inactive)"}, {"compound": "Cc1cccc(Nc2nc(-c3ccc(O)c(O)c3)cs2)c1", "IC50": "> 100 µM (inactive)"}, {"compound": "Oc1ccc(-c2csc(Nc3ccccc3)n2)c(O)c1", "IC50": "> 100 µM (inactive)"}, {"compound": "Oc1ccc(Nc2nc(-c3ccc(O)c(O)c3)cs2)cc1", "IC50": "11.6 µM"}, {"compound": "COc1cc(C(=O)NNC(=S)Nc2ccc(S(N)(=O)=O)cc2)cc(OC)c1OC", "IC50": "> 100 µM (inactive)"}, {"compound": "Cc1ccc(Nc2nc(-c3ccc(O)c(C(N)=O)c3)cs2)cc1", "IC50": "> 100 µM (inactive)"}, {"compound": "O=S(=O)(c1ccc(NC(=S)N/N=C/c2ccc(O)c(O)c2)cc1)N1CCOCC1", "IC50": "> 100 µM (inactive)"}, {"compound": "Cc1cccc(C)c1NC(=S)N/N=C/c1ccc(O)c(O)c1O", "IC50": "> 100 µM (inactive)"}, {"compound": "O=S(=O)(Nc1ncccn1)c1ccc(NC(=S)NCCC(c2ccccc2)c2ccccc2)cc1", "IC50": "> 100 µM (inactive)"}, {"compound": "O=[N+]([O-])c1ccc(NC(=S)NCCC(c2ccccc2)c2ccccc2)cc1", "IC50": "> 100 µM (inactive)"}, {"compound": "S=C(NCCC(c1ccccc1)c1ccccc1)Nc1ccc(Cl)cc1Cl", "IC50": "> 100 µM (inactive)"}, {"compound": "Cc1cccc2sc(NNC(=O)c3ccc4c(c3)OCCO4)nc12", "IC50": "> 100 µM (inactive)"}, {"compound": "COC(=O)C/C=N/N=C1\\NC(=O)/C(=C/C(=O)O)S1", "IC50": "> 100 µM (inactive)"}, {"compound": "O=C(O)CC1S/C(=N/N=C/c2ccco2)NC1=O", "note": "(stereo unspecified)", "IC50": "> 100 µM (inactive)"}, {"compound": "COC(=O)/C=C1/S/C(=N/NC(=O)c2ccccc2)NC1=O", "IC50": "> 100 µM (inactive)"}, {"compound": "COc1ccc(NC(=S)NCCC(c2ccccc2)c2ccccc2)cc1", "IC50": "> 100 µM (inactive)"}, {"compound": "Cc1ccc(C)c(Nc2nc(-c3ccc(O)cc3O)cs2)c1", "IC50": "> 100 µM (inactive)"}, {"compound": "Cc1ccc(Nc2nc(-c3ccc(O)cc3O)cs2)cc1F", "IC50": "> 100 µM (inactive)"}, {"compound": "CC(=NNC(=S)Nc1ccccc1)c1ccc2c(c1)OCO2", "IC50": "> 100 µM (inactive)"}, {"compound": "Cc1ccc(Nc2nc(-c3ccc(O)cc3O)cs2)cc1C", "IC50": "> 100 µM (inactive)"}, {"compound": "COc1ccc(Cl)cc1Nc1nc(-c2ccc(O)c(O)c2)cs1", "IC50": "> 100 µM (inactive)"}, {"compound": "Cc1cccc(Nc2nc(-c3ccc(O)c(C(N)=O)c3)cs2)c1", "IC50": "> 100 µM (inactive)"}, {"compound": "CCOc1cc(C=NNC(=S)NC2CCCCC2)ccc1O", "IC50": "> 100 µM (inactive)"}, {"compound": "COc1cc([N+](=O)[O-])ccc1NC(=S)NNC(=O)c1ccc2c(c1)OCO2", "IC50": "> 100 µM (inactive)"}, {"compound": "COC(=O)/C=C1\\S/C(=N/N=C/c2ccc(Cl)cc2)NC1=O", "IC50": "> 100 µM (inactive)"}, {"compound": "Cc1ccc2sc(NNC(=O)c3ccc4c(c3)OCCO4)nc2c1C", "IC50": "> 100 µM (inactive)"}, {"compound": "COc1cc(C=NN=C2SC(CC(=O)O)C(=O)N2c2ccc(O)cc2)ccc1O", "note": "(stereo unspecified)", "IC50": "> 100 µM (inactive)"}, {"compound": "NS(=O)(=O)c1ccc(Nc2nc(-c3ccc(O)cc3O)cs2)cc1", "IC50": "> 100 µM (inactive)"}, {"compound": "COc1cc(/C=N/N=C2\\NC(=O)C(CC(=O)O)S2)cc(OC)c1OC", "note": "(stereo unspecified)", "IC50": "> 100 µM (inactive)"}, {"compound": "Cc1c(Cl)cccc1Nc1nc(-c2ccc(O)c(O)c2)cs1", "IC50": "> 100 µM (inactive) and 96.6 µM"}, {"compound": "COC(=O)/C=C1/S/C(=N/NC(=O)c2ccc(Cl)cc2Cl)NC1=O", "IC50": "> 100 µM (inactive)"}, {"compound": "O=S(=O)(c1ccc(NC(=S)N/N=C/c2ccc(O)c(O)c2O)cc1)N1CCOCC1", "IC50": "> 100 µM (inactive)"}, {"compound": "CN(C)S(=O)(=O)c1cccc(NC(=S)NN=Cc2ccc(O)c(O)c2O)c1", "IC50": "> 100 µM (inactive)"}]}]}
